# Measurements as given in patent publication US20210047291A1, “PESTICIDALLY ACTIVE HETEROCYCLIC DERIVATIVES WITH SULFUR CONTAINING SUBSTITUENTS” (SYNGENTA PARTICIPATIONS AG, priority 2018, published 2021).
# Experiments:
# Format in all cases: in vivo
# [1] = tested on: Myzus persicae (Green peach aphid); assay: Example B5: Myzus persicae feeding/contact activity, sunflower leaf discs; conditions: foliar; for mortality at 200 ppm: Myzus persicae, 144 h, application rate of 200 ppm, mixed ages, 6 days after infestation, read-out: mortality
# Protocol: Sunflower leaf discs were placed onto agar in a 24-well microtiter plate and sprayed with aqueous test solutions prepared from 10,000 ppm DMSO stock solutions. After drying, the leaf discs were infested with an aphid population of mixed ages. The samples were assessed for mortality 6 days after infestation.
# [2] = tested on: Diabrotica Balteata (Corn Root Worm); assay: Example B2: Diabrotica balteata, maize sprouts, L2 larvae; conditions: for percent effect (mortality or growth inhibition) at 200 ppm: Diabrotica balteata, 96 h, application rate of 200 ppm, L2 larvae, 4 days after infestation, read-out: effect in at least one of the two categories (mortality or growth inhibition)
# Protocol: Maize sprouts placed onto an agar layer in 24-well microtiter plates were treated with aqueous test solutions prepared from 10,000 ppm DMSO stock solutions by spraying. After drying, the plates were infested with L2 larvae (6 to 10 per well). The samples were assessed for mortality and growth inhibition in comparison to untreated samples 4 days after infestation.
# [3] = tested on: Frankliniella occidentalis (Western Flower Thrips); assay: Example B4: Frankliniella occidentalis feeding/contact activity, sunflower leaf discs; conditions: foliar, 168 h, application rate of 200 ppm, mixed ages, 7 days after infestation
# Protocol: Sunflower leaf discs were placed on agar in 24-well microtiter plates and sprayed with aqueous test solutions prepared from 10,000 DMSO stock solutions. After drying the leaf discs were infested with a Frankliniella population of mixed ages. The samples were assessed for mortality 7 days after infestation.
# [4] = tested on: Myzus persicae (Green peach aphid); assay: Example B6: Myzus persicae systemic activity, pea seedlings; conditions: for mortality at 24 ppm: Myzus persicae, 144 h, test rate of 24 ppm, mixed ages, 6 days after placing seedlings into test solutions, read-out: mortality
# Protocol: Roots of pea seedlings infested with an aphid population of mixed ages were placed directly into aqueous test solutions prepared from 10,000 DMSO stock solutions. The samples were assessed for mortality 6 days after placing seedlings into test solutions.
# [5] = tested on: Euschistus heros (Neotropical Brown Stink Bug); assay: Example B3: Euschistus heros, soybean leaves, N2 nymphs; conditions: for percent effect (mortality or growth inhibition) at 200 ppm: Euschistus heros, 120 h, application rate of 200 ppm, N2 nymphs, 5 days after infestation, read-out: effect in at least one of the two categories (mortality or growth inhibition)
# Protocol: Soybean leaves on agar in 24-well microtiter plates were sprayed with aqueous test solutions prepared from 10,000 ppm DMSO stock solutions. After drying the leaves were infested with N2 nymphs. The samples were assessed for mortality and growth inhibition in comparison to untreated samples 5 days after infestation.
# [6] = tested on: Spodoptera littoralis (Egyptian Cotton Leaf Worm); assay: Example B9: Spodoptera littoralis, cotton leaf discs (mortality, anti-feeding, growth inhibition); conditions: foliar, 72 h, application rate of 200 ppm, L1 larvae, 3 days after infestation, read-out: control (mortality, anti-feeding effect or growth inhibition)
# Protocol: Cotton leaf discs were placed onto agar in 24-well microtiter plates and sprayed with aqueous test solutions prepared from 10,000 ppm DMSO stock solutions. After drying the leaf discs were infested with five L1 larvae. The samples were assessed for mortality, anti-feeding effect, and growth inhibition in comparison to untreated samples 3 days after infestation. Control of Spodoptera littoralis by a test sample is given when at least one of the categories mortality, anti-feedant effect, and growth inhibition is higher than the untreated sample.
# Melodoigyne incognita = assay: Example B14: Melodoigyne incognita juvenile mobility, in vitro profiling in 96 well plate; conditions: 200 ppm; after 24 h; second stage juveniles; read-out: control (juvenile mobility)
# Protocol: Test solutions are prepared from 10,000 ppm DMSO stock solutions with a TECAN robot to achieve 20 μL of 1000, 200, 100, 50, 25 and 12.5 ppm. For each concentration three replicates are produced. Per well, 80 μL nematode solution is added containing 100 to 150 freshly harvested second stage juveniles of Melodoigyne incognita. The plates are covered and stored at room temperature in the dark and incubated for 24 h. Mobility of the exposed juveniles in a treated well is measured using an imaging tool and compared to an average of 12 untreated replicates.
# [7] = tested on: Plutella xylostella (Diamond Back Moth); assay: Example B7: Plutella xylostella, artificial diet, L2 larvae; conditions: 120 h, application rate of 200 ppm, L2 larvae, 5 days after infestation, read-out: effect in at least one of the two categories (mortality or growth inhibition)
# Protocol: 24-well microtiter plates with artificial diet were treated with aqueous test solutions prepared from 10,000 ppm DMSO stock solutions by pipetting. After drying, the plates were infested with L2 larvae (10 to 15 per well). The samples were assessed for mortality and growth inhibition in comparison to untreated samples 5 days after infestation.
# [8] = tested on: Tetranychus urticae (Two-Spotted Spider Mite); assay: Example B10: Tetranychus urticae feeding/contact activity, bean leaf discs; conditions: foliar, 192 h, application rate of 200 ppm, mixed population (mobile stages), 8 days after infestation
# Protocol: Bean leaf discs on agar in 24-well microtiter plates were sprayed with aqueous test solutions prepared from 10,000 ppm DMSO stock solutions. After drying the leaf discs were infested with a mite population of mixed ages. The samples were assessed for mortality on mixed population (mobile stages) 8 days after infestation.
Structure (SMILES),mortality at 200 ppm [1] [%],"Mortality (%) ([2]; Concentration 200 ppm, Diabrotica balteata (Example B2), listed as drawing 154)",percent effect (mortality or growth inhibition) at 200 ppm [2] [%],mortality at 200 ppm [3] [%],mortality at 24 ppm [4] [%],percent effect (mortality or growth inhibition) at 200 ppm [5] [%],"percent control (mortality, anti-feedant effect or growth inhibition) at 200 ppm [6] [%]",pest or weed control at 200 ppm (Melodoigyne incognita) [%],percent effect (mortality or growth inhibition) at 200 ppm [7] [%],"mortality at 12.5 ppm ([1]; Concentration 12.5 ppm, Myzus persicae (feeding/contact, Example B5), read-out: Mortality (%)) [%]","mortality at 1.5 ppm ([4]; Concentration 1.5 ppm, Myzus persicae (systemic, Example B6), read-out: Mortality (%)) [%]","mortality at 50 ppm ([5]; Concentration 50 ppm, Euschistus heros (Example B3), read-out: Mortality (%)) [%]",mortality at 200 ppm [8] [%]
"CCS(=O)(=O)c1cc(NC(C)=O)cnc1-c1nc2cc(C(F)(F)F)ncc2n1C [P4, N-[5-ethylsulfonyl-6-[3-methyl-6-(trifluoromethyl)imidazo[4,5-c]pyridin-2-yl]-3-pyridyl]acetamide]",≥ 80,100,≥ 80,≥ 80,≥ 80,≥ 80,–,–,–,–,–,–,–
"CCS(=O)(=O)c1cc(N(C)C(=O)C2CC2)cnc1-c1nc2cc(C(F)(F)F)ncc2n1C [P9, N-[5-ethylsulfonyl-6-[3-methyl-6-(trifluoromethyl)imidazo[4,5-c]pyridin-2-yl]-3-pyridyl]-N-methyl-cyclopropanecarboxamide]",≥ 80,–,≥ 80,≥ 80,≥ 80,≥ 80,≥ 80,≥ 80,≥ 80,–,–,–,–
"CCC(=O)N(C)c1cnc(-c2nc3cc(C(F)(F)F)ncc3n2C)c(S(=O)(=O)CC)c1 [P23, N-[5-ethylsulfonyl-6-[3-methyl-6-(trifluoromethyl)imidazo[4,5-c]pyridin-2-yl]-3-pyridyl]-N-methyl-propanamide]",≥ 80,–,≥ 80,–,≥ 80,≥ 80,≥ 80,≥ 80,≥ 80,90,100,100,≥ 80
"CCS(=O)(=O)c1cc(N(C)C(=O)C2(C#N)CC2)cnc1-c1nc2cc(C(F)(F)F)ncc2n1C [P38, 1-cyano-N-[5-ethylsulfonyl-6-[3-methyl-6-(trifluoromethyl)imidazo[4,5-c]pyridin-2-yl]-3-pyridyl]-N-methyl-cyclopropanecarboxamide]",≥ 80,–,≥ 80,–,≥ 80,≥ 80,–,≥ 80,≥ 80,–,–,–,≥ 80
"CCS(=O)(=O)c1cc(N(C(C)=O)C2(C#N)CC2)cnc1-c1nc2cc(C(F)(F)F)ncc2n1C [P42, N-(1-cyanocyclopropyl)-N-[5-ethylsulfonyl-6-[3-methyl-6-(trifluoromethyl)imidazo[4,5-c]pyridin-2-yl]-3-pyridyl]acetamide]",≥ 80,–,–,–,≥ 80,≥ 80,≥ 80,≥ 80,≥ 80,–,–,–,≥ 80
"CCS(=O)(=O)c1cc(N(C)C(=O)C(F)F)cnc1-c1nc2cc(C(F)(F)F)ncc2n1C [P13, N-[5-ethylsulfonyl-6-[3-methyl-6-(trifluoromethyl)imidazo[4,5-c]pyridin-2-yl]-3-pyridyl]-2,2-difluoro-N-methyl-acetamide]",≥ 80,–,≥ 80,–,≥ 80,≥ 80,≥ 80,≥ 80,≥ 80,–,–,–,≥ 80
"CCS(=O)(=O)c1cc(N(C)C(=O)C(C)(C)C#N)cnc1-c1nc2cc(C(F)(F)F)ncc2n1C [P43, 2-cyano-N-[5-ethylsulfonyl-6-[3-methyl-6-(trifluoromethyl)imidazo[4,5-c]pyridin-2-yl]-3-pyridyl]-N,2-dimethyl-propanamide]",≥ 80,–,≥ 80,≥ 80,≥ 80,≥ 80,≥ 80,≥ 80,≥ 80,–,–,–,–
